In general, inhibition refers to the relative decrease from the control value, in per cent. As a reminder, the IC50 is the midpoint of a concentration-inhibition curve.

The text below walks through data of patent US8293773B2, “1, 2, 3-triazole derivatives as new cannabinoid-1 receptor antagonists” (National Tsing Hua University, priority 2008, dated 2012).

This experiment deals with T1, human CB1 receptor (Homo sapiens, UniProt P21554).
T1 construct: expressed in transfected cells; membrane-enriched fractions
T1 sequence (P21554 whole entry): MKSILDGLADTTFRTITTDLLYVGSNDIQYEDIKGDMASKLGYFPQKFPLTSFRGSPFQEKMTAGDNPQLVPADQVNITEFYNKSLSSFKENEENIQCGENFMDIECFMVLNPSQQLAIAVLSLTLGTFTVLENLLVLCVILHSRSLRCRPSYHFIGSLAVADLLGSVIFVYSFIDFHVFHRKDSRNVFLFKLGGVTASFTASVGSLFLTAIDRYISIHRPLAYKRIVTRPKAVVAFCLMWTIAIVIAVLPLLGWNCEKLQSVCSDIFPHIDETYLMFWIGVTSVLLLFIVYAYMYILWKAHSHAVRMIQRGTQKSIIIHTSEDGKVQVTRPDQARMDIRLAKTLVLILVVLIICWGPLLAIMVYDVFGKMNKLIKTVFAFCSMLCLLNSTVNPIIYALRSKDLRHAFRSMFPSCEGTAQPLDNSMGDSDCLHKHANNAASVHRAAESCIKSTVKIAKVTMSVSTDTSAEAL
Put plainly: competitive radioligand binding assay, displacement of [3H]CP55,940, CB1. To be noted: for inhibition at 10 µM / CB1 Inhibition (%) (10 μM): percent inhibition at 10 μM; for IC50: displacement of specific [3H]-CP55940 binding in HEK 293 cells stably transfected with human CB1 receptor. As for the experimental part: In addition, the affinity of test compounds of this invention toward CB1 and CB2 receptors was determined by competitive radioligand binding assays in vitro. This method differentiates the binding strength between compounds by their abilities in displacing a receptor-specific radioactive ligand. […] The readings of the radioactivity retained allow further analysis of receptor binding, and assist in predictions of the pharmacological activities of the test compounds.
In the assays, CB1 receptors are from human CB1 stably expressed cell lines, and CB2 receptors are from human CB2 stably expressed cell lines. For purification of membrane-enriched fractions, cells were scraped off from the culture dishes in ice-cold buffer A (50 mM Tris, 5 mM MgCl2, 2.5 mM EDTA, pH 7.4, 10% sucrose) with 1 mM PMSF. After sonication, the membrane-enriched fractions were centrifuged for 15 minutes at 2,000×g at 4° C. The supernatant was centrifuged again for 30 minutes at 43,000×g at 4° C. The final pellet was re-suspended in buffer A and stored at −80° C. The protein concentration of the purified membrane was determined by the Bradford method as described by the manual provided by Bio-Rad Laboratories, Inc., Hercules, Calif.
During the receptor binding experiments, 0.2˜8 μg of membrane fractions were incubated with 0.75 nM [^3H]CP55,940 and a test compound in the incubation buffer of 50 mM Tris-HCl, 5 mM MgCl2, 1 mM EDTA, 0.3% BSA, pH 7.4. The non-specific binding was determined by using 1 μM of CP55,940. The mixture was incubated for 1.5 hours at 30° C. in Multiscreen microplates (Millipore, Billerica, Mass.). At the completion of the incubation, the reaction was terminated by Manifold filtration and washed with ice-cold wash buffer (50 mM Tris, pH 7.4, 0.25% BSA) four times. The radioactivity bound to the filters was measured by Topcount (Perkin Elmer Inc.).
For orientation: In a radioligand displacement assay an active substance lowers the binding of a labelled ligand.

On to `O=C(Cn1nnc(-c2ccccc2)c1-c1ccccc1)NN1CCCCC1` [Compound 8], for which the inhibition at 10 µM (Table 1) turned out to be 12.3%.
Turning to `CCCCCNC(=O)n1nc(-c2ccc(Cl)cc2)c(-c2ccc(Cl)cc2)n1` [Compound 86], the inhibition at 10 µM (Table 2) was 8.4%.
As for `CCCCOC(=O)Cn1nnc(-c2cccc(Cl)c2)c1-c1cccc(Cl)c1` [Compound 19], the inhibition at 10 µM (Table 1) came out at 36.7%.
Take `COc1ccc(NC(=O)n2nc(-c3ccc(Cl)cc3Cl)c(-c3ccc(Cl)cc3Cl)n2)cc1` [Compound 78]: for the setting “Table 2”, the inhibition at 10 µM worked out at 6.4%.
Same read-out and setting: then `O=C(Cn1nc(-c2ccc(Cl)cc2Cl)c(-c2ccc(Cl)cc2Cl)n1)N[C@@H](CO)[C@H](O)c1ccc([N+](=O)[O-])cc1` [Compound 135], with 60.1%.
Turning to `O=C(Cn1nnc(-c2ccc(Cl)cc2Cl)c1-c1ccc(Cl)cc1Cl)N1CCOCC1` [Compound 64], where the note is “Table 1”, the inhibition at 10 µM worked out at 26%.
The compound `C#CC1(NC(=O)Cn2nc(-c3ccc(Cl)cc3Cl)c(-c3ccc(Cl)cc3Cl)n2)CCCCC1` [Compound 126] returned a half-inhibitory concentration (IC50) of 86.8 ± 1 nM. Moreover, the inhibition at 10 µM (Table 2) turned out to be 102%.
For the compound `O=C(Cn1nc(-c2ccc(Cl)cc2Cl)c(-c2ccc(Cl)cc2Cl)n1)N[C@H]1c2ccccc2C[C@H]1OC(=O)Cn1nc(-c2ccc(Cl)cc2Cl)c(-c2ccc(Cl)cc2Cl)n1` [Compound 128], the inhibition at 10 µM (Table 2) was 13.6%.
On to `O=C(Cn1nc(-c2ccc(Cl)cc2)c(-c2ccc(Cl)cc2Cl)n1)NCc1ccc(Cl)cc1` [Compound 150], for which the half-maximal inhibitory concentration (IC50) was found to be 704 ± 283 nM. Also, the inhibition at 10 µM (Table 2) was 91.4%.
As to `O=C(Cn1nnc(-c2ccccc2)c1-c1ccccc1)N1CCCCC1` [Compound 3], the inhibition at 10 µM (Table 1) stood at 26.6%.
As to `O=C(Cn1nnc(-c2cccc(Cl)c2)c1-c1cccc(Cl)c1)N1CCCCC1` [Compound 11], the inhibition at 10 µM (Table 1) worked out at 20.4%.
Turning to `CCCCCCCNC(=O)n1nc(-c2ccc(Cl)cc2Cl)c(-c2ccc(Cl)cc2Cl)n1` [Compound 89], where the note is “Table 2”, the inhibition at 10 µM was 12.9%.
Regarding `CCCCOC(=O)Cn1nnc(-c2ccc(C(=O)OC)cc2)c1-c1ccc(C(=O)OC)cc1` [Compound 61], under “Table 1”, the inhibition at 10 µM came out at 46.1%.
Still for that read-out and setting: for `O=C(Cn1nnc(-c2ccccc2)c1-c1ccccc1F)N1CCCCC1` [Compound 52] the value was 11%.
On to `CC(C)(C)C(=O)n1nc(-c2ccc(Cl)cc2Cl)c(-c2ccc(Cl)cc2Cl)n1` [Compound 68], for which the inhibition at 10 µM (Table 2) was found to be 24.2%.
As to `CCCCOC(=O)Cn1nnc(-c2ccccc2)c1-c1ccc(C(=O)OC)cc1` [Compound 29], the inhibition at 10 µM (Table 1) amounted to 31.9%.
On to `O=C(Cn1nc(-c2ccc(Cl)cc2)c(-c2ccc(Cl)cc2Cl)n1)NCc1ccc(Cl)cc1Cl` [Compound 152], for which the IC50 is 711 ± 175 nM. Besides, the inhibition at 10 µM (Table 2) was 90.5%.
`CCCCCCCCNC(=O)n1nc(-c2ccc(Cl)cc2)c(-c2ccc(Cl)cc2)n1` [Compound 102]: for the setting “Table 2”, the “CB1 Inhibition (%) (10 μM)” value is 15.70%.
On to `O=C(Cn1nc(-c2ccc(Cl)cc2)c(-c2ccc(Cl)cc2Cl)n1)NCc1ccc(F)c(F)c1` [Compound 166], for which, under “Table 2”, the inhibition at 10 µM worked out at 88.3%.
In the case of `O=C(Cn1nnc(-c2ccc(F)c(Cl)c2)c1-c1ccc(F)c(Cl)c1)N1CCCCC1` [Compound 12], the inhibition at 10 µM (Table 1) amounted to 30.7%.
Take `COc1ccc(CNC(=O)Cn2nc(-c3ccc(Cl)cc3)c(-c3ccc(Cl)cc3Cl)n2)cc1` [Compound 149]: the IC50 is 684 ± 428 nM. Besides, the inhibition at 10 µM (Table 2) stood at 78.2%.
Regarding `CCCCOC(=O)CNC(=O)n1nc(-c2ccc(Cl)cc2Cl)c(-c2ccc(Cl)cc2Cl)n1` [Compound 92], the inhibition at 10 µM (Table 2) worked out at 22.3%.
As to `O=C(NC1CCCCC1)n1nc(-c2ccc(Cl)cc2)c(-c2ccc(Cl)cc2)n1` [Compound 100], the “CB1 Inhibition (%) (10 μM)” value (Table 2) stood at 19.90%.
For `CCCCCCCCNC(=O)n1nc(-c2ccc(Cl)cc2)c(-c2ccc(Cl)cc2Cl)n1` [Compound 96], the inhibition at 10 µM (Table 2) was found to be 17.7%.
Same read-out and setting: then `O=C(NC1CCCCC1)n1nc(-c2ccc(Cl)cc2)c(-c2ccc(Cl)cc2)n1` [Compound 80], with 29.9%.
As for `CCCCOC(=O)Cn1nnc(-c2ccc(Cl)c(Cl)c2)c1-c1ccc(Cl)c(Cl)c1` [Compound 6], the inhibition at 10 µM (Table 1) is 50.5%.
